A melting point compilation (Tetko et al.; mined from patent text by program, amines drawn as free bases though some values may be those of a salt)

SMILES | melting point [°C]
CCOP(=O)(Cc1cc(C(C)(C)C)c(O)c(C(C)(C)C)c1)OCC | 114
C=CC[C@H](CC(=O)OC(C)(C)C)C(=O)N[C@H](C(=O)OCc1ccccc1)C(C)(C)C | 55 to 57
Cc1c(C)c2c(c(C)c1O)CCC(C)(C(=O)NC1CCN(c3ccc(NC(=N)c4cccs4)cc3)C1)O2 (stereo unspecified) | 135 to 138
Nc1cc(Cl)c(Cl)cc1NCCO | 120
CC#Cc1cc(N(C)C)nc(Nc2ccccc2)n1 | 150 to 152
O=C1CCC2(CC1)Cc1ccccc1C2 | 91 to 94
Cc1cc(S(F)(F)(F)(F)F)ccc1N | 65 to 66
O=C(O)CCCSc1ccccc1O | 77 to 78
CC(C)(C)C(=O)c1ccc(C(=O)NC(=O)c2ccc(F)cc2)cc1 | 100 to 101
Cc1cc(OCC(O)CCl)c2cn[nH]c2c1 (stereo unspecified) | 171 to 172
O=C(NNc1nc(-c2ccccc2)c2cc(Cl)ccc2n1)C(F)(F)F | 207 to 208
CC1(C)C(=O)Nc2cc3[nH]cnc3cc21 | 278 to 280
Cc1nc2c(O)c(C(=O)[C@H](O)[C@@H](O)c3ccccc3)ccc2n1C | 170
CSc1ccc2c(c1)C(O)(C1CCN(C)CC1)c1ccc(F)cc1S2 (stereo unspecified) | 180 to 189
O=C(NC1CCc2ccccc2C1=O)c1ccccc1 (stereo unspecified) | 175
CCCCn1c2c(c(=O)n(CCCC)c1=O)CN(S(=O)(=O)Cc1ccccc1)N2 | 137 to 140
CSC(C(=O)c1cc(-c2ccccc2)on1)N(C)C (stereo unspecified) | 98 to 99.5
CC(C)c1nccn1-c1nc(Cl)nc2nc[nH]c12 | 268
CCCCCCCCc1ccc(CCC(CC)(COC(C)=O)NC(C)=O)cc1 (stereo unspecified) | 107 to 109
O=C1CCCNc2ccc(Br)cc21 | 99 to 101
Cn1cccc1C(=O)c1sc(Nc2ccc3[nH]cnc3c2)nc1N | 284 to 285
Nc1n[nH]c2nc(N3CCOCC3)cc(-c3ccccc3)c12 | 178 to 180
COc1ccc(-c2ccc(C#N)cc2)cc1C=O | 146 to 147
O=C(Cn1c(-c2ccc(F)cc2)ncc(NC(=O)OCc2ccccc2)c1=O)NC(Cc1ccccc1)C(=O)C(F)(F)F (stereo unspecified) | 103 to 107
Cc1cc(S(N)(=O)=O)ccc1NC(=O)CNc1ccccc1 | 195 to 196
N=C(NCCOc1cccc2[nH]c3ccccc3c12)c1cccs1 | 180 to 181

SMILES | melting point [°C]
COc1ccc(N2CCN(c3ccc(OC(F)(F)F)cc3)C(=O)C2)c(-c2ccc(N(C)C)cc2)n1 | 116 to 120
NC1=NC(N)(c2ccc(S(=O)(=O)NN3CCOCC3)cc2)NC=N1 (stereo unspecified) | > 260
COc1cc2c(cc1C#N)C1(CO2)C(=O)N(Cc2ccccn2)c2ccccc21 (stereo unspecified) | 187 to 189
CC=CC(O)c1c(C(C)C)nc(C(C)C)c(CCCCC)c1-c1ccc(F)cc1 (stereo unspecified) | 70 to 72
Cc1ccc(S(=O)(=O)OCC2CCc3ncsc3C2)cc1 (stereo unspecified) | 90 to 91
CCCC1(C)OC(=O)C(c2ccc(F)cc2)=C1c1ccc(S(C)(=O)=O)cc1 (stereo unspecified) | 112 to 113
CCCO[C@@H]1[C@@H](OC)[C@H](C)O[C@@H](ON=Cc2ccc(/C=C/c3ccc(OC(F)(F)F)cc3)cc2)[C@@H]1OC | 124 to 132
CCCCn1c(=O)c2cn(S(=O)(=O)c3cc(Cl)c(Cl)s3)nc2n(CCCC)c1=O | 181 to 182
CCOC(=O)C=Cc1cccc(Nc2ccc3nc[nH]c3c2)c1 | 188 to 190
COc1ccccc1C(=O)CN1C(=O)C(NC(=O)Nc2cccc(-c3nnn[nH]3)c2)N=C(c2ccccc2F)c2cccc(C)c21 (stereo unspecified) | 194 to 195
CC=C1CCC2C3CCC4CC(O)CCC4(C)C3C(=NO)CC12C (stereo unspecified) | 233 to 235
CCCc1nc(SC(F)F)c(C(=O)O)n1Cc1ccc(-c2ccccc2S(=O)(=O)NC(=O)NCc2ccccc2Cl)cc1 | 134
CC(=O)Nc1ccn([C@@H]2[C@H](O)[C@H](O)CC[C@H]2OC(C)=O)c(=O)n1 (racemic) | 249
C=C(C)c1ccc(-c2ccc(C(=C)C)cc2)cc1 | 182
Oc1ncc(-c2ccccc2)cn1 | 239 to 241
CC(C)(C)OC(=O)[C@H]1CC[C@@H](NC(=O)OCc2ccccc2)CC1 | 73 to 74
CC(=O)c1cc(N=C=O)cc(C(C)=O)c1 | 71
CC(C)OC(=O)CCC(=O)c1ccc(Cl)c(S(N)(=O)=O)c1 | 128 to 130
COc1ccc2c(c1)CCC1C3=CC(C)=C(OC(C)=O)C3(C)CCC21 (stereo unspecified) | 129 to 130
CC(C)Oc1cc(-n2nc(C(F)F)n(C)c2=O)c(Cl)cc1Cl | 95 to 97
COCc1cccc(CNC(=O)c2nc3scc(COCc4ccc(C(=O)O)cc4)c3c(=O)[nH]2)c1 | 242 to 244
CCOP(=O)(C/C=C\CC1(C(=O)NCC(F)(F)F)c2ccccc2-c2ccccc21)OCC | 88 to 91
CCOc1ccc2c(c1)n(C1CCCCC1)c(=O)n2Cc1ccc(NC(=NC#N)NC)cc1OC | 195
Cc1cc(C(=O)N2Cc3cccn3Cc3ccccc32)ccc1N | 232 to 234
COC(=O)c1ccc(CN2C(=O)C3(COc4cc5c(cc43)OCCO5)c3ccccc32)o1 (stereo unspecified) | 88 to 92
CC1CN(c2c(F)c(F)c3c(=O)c(C(=O)O)cn(C4CC4)c3c2F)CCN1 (stereo unspecified) | 235 to 237

SMILES | melting point [°C]
Cc1nc(-c2ccc(OC(C)C)cc2)sc1C(=O)O | 186 to 188
O=S(=O)(Cc1ccccc1)On1nnc2ccccc21 | 65 to 67
CCCCCS(=O)(=O)NC(=O)/C=C/c1cc(C(C)C)nn1Cc1ccc(Cl)cc1Cl | 149 to 151
CONc1ccc([N+](=O)[O-])cc1[N+](=O)[O-] | 110 to 112
COc1cc2c(Nc3ccc(Cl)cc3F)ncnc2cc1OCCCSc1nccn1C | 199 to 201
CC1Cc2cc3c(cc2C(c2ccc([N+](=O)[O-])cc2)=NN1c1nccs1)OCO3 (stereo unspecified) | 145 to 150
CCn1c(=O)c2c(-c3nc(C4CC4)no3)ncn2c2cccnc21 | 262 to 263
C#CCSc1nn(C(=O)NS(=O)(=O)c2c(C)cccc2OCCC)c(=O)n1C | 151
Nc1ccc(Nc2c(NCc3ccco3)cc(C(=O)O)cc2S(=O)(=O)Nc2ccccc2N)cc1 | 182
Cn1c(=O)c2c(NN)nccc2n(C)c1=O | 244
Sc1nnc(Cc2ccc(Cl)cc2)o1 | 115
N#CCCNC(=O)c1cccc(-c2ccc3c(c2)N(c2ccc(Cl)cc2Cl)CC3)c1 | 148 to 154
C=C(C)C(=O)NCCCNc1nc(Cl)nc(Cl)n1 | 138 to 140
O=C(O)c1ccc(OC(F)=C(F)F)cc1 | 139 to 140
COc1cc(C)ccc1S(=O)(=O)O | 92 to 94
COc1cc2c(cc1OC)-c1c(O)c(OC)cc3c1C(C2)CN(C(=O)C(F)(F)F)C3 (stereo unspecified) | 210 to 217
COc1ccc(C2(O)CCN(c3ccc(OC)nc3-c3ccc(OC(F)(F)F)cc3)CC2)cc1 | 100 to 112
CCOC(=O)c1c(C)cc2c(c1C)c(=O)n(-c1ccccc1C(F)(F)F)c(=O)n2CCN1CCN(C(=O)C=Cc2ccccc2)CC1 | 119 to 120
CCC(CC)Nc1cc(C)nc(Cl)c1N | 165 to 166
CSc1ccc(-c2nnc(Cl)cc2-c2ccc(Cl)cc2)cc1 | 145 to 146
O=[N+]([O-])c1ccc(S(=O)(=O)NCc2ccccc2)c([N+](=O)[O-])c1 | 150 to 151
COC(=O)c1coc(CN2C(=O)C3(COc4cc5onc(C)c5cc43)c3ccccc32)n1 (stereo unspecified) | 148 to 152
Cc1nnc(SCC(=O)C23CC4CC(CC(C4)C2)C3)n1Cc1ccc(Cl)cc1 | 158 to 159
CCCCOC(=O)c1ccccc1C(=O)Nc1nc2ccccc2[nH]1 | 187
NC(=O)C1CCN(c2c(Cl)cncc2Cl)C1 (stereo unspecified) | 161 to 163
CC#CCCCCCCCCCCCC | 36 to 37

SMILES | melting point [°C]
Cc1ccc(-c2cc(C)cn2-c2ccc(S(N)(=O)=O)cc2)cc1 | 175 to 176
OCCc1nccn1CCCCc1ccc(O)cc1 | 75 to 77
O=C1C(c2ccccc2)=C(c2ccccc2)C(=O)N1c1ccccc1C(F)(F)F | 152 to 153
CCOC(=O)c1c(C)nc2c(nc(C)n2C)c1OCC | 85 to 87
COc1ccc(CC(=O)NC(NC(=NC#N)Nc2ccccc2Cl)C(C)(C)C)cc1OC (stereo unspecified) | 135 to 136
Cc1c(SCCN2CCCCC2)ccnc1CSc1nc2ccccc2[nH]1 | 138 to 140
CN1C(=O)N(CCC(NS(=O)(=O)c2ccc(-c3ccc(Cl)cc3)cc2)C(=O)NO)C(=O)C1(C)C (stereo unspecified) | 117 to 120
COc1cccc(OC)c1N(COCC(C)C)C(=O)CCl | 107 to 110
CCCCCCCCCCCCCCOc1ccc(C(=O)NCCc2ccccn2)cc1 | 80 to 82
Cn1cc2c(Cl)cc(-c3ccccc3)nc2n1 | 177 to 179
COc1ccc2c(c1)OC(C#N)=CO2 | 92
CC1(C)SCNC1C(=O)O (stereo unspecified) | 209 to 210
C=CCc1c(C(=O)OC)[nH]c2c(C)ccc(C)c12 | 135 to 136
Nc1c(Br)cc2c(c1Br)C(C(Cl)(Cl)Cl)OC(C(Cl)(Cl)Cl)O2 (stereo unspecified) | 158 to 159
CC(C)(C)OC(=O)N[C@H](C(=O)Br)c1ccccc1 | 108 to 109
CNC(=O)c1ccc(-c2ccc3nnn(Cc4ccc5ncccc5c4)c3n2)cc1F | 212 to 214
Cn1c(-c2ccc(-c3ccccn3)cc2)c(C(=O)O)c(=O)n1-c1ccc(C#N)cc1 | 155 to 166
COc1ccc2ccccc2c1-c1c(C)c2c(c(C)c1P(c1ccccc1)c1ccccc1)COC2 | 159
C=C(CC(NC(=O)OC(C)(C)C)C(=O)OCC)CC(NC=O)(C(=O)OCC)C(=O)OCC (stereo unspecified) | 68
COC(=O)c1cc(O)n2nc(C)nc2n1 | 170 to 174
COc1ccc2c(c1OC)CCC(NC(=O)C(F)(F)F)C2=O (stereo unspecified) | 166 to 167
O=C(C=NNc1cc(Oc2ncccn2)c(Cl)cc1F)C(F)(F)F | 188 to 190
Cc1ccc(-c2c(CO)n(CC(C)C)c(=O)c3ccc(OCc4ccccc4)cc23)cc1 | 74 to 76
